Experimental data as given in paper PMC11555231 (Nature Communications, 2024).
Like-named read-outs stand apart in the source and are kept apart here. Blank lines part the entries; values can stand above or below the molecule they belong to. Bridge positions count the residues as written; N and C are the ends. Square brackets hold non-standard residues; d marks the D form. Peptide text beside a SMILES is read from it. Cit = NC(=O)NCCC[C@H](N)C(=O)O

Columns and labels:
[1] = tested on: human neutrophils; assay: Time-lapse imaging and NET quantification (NETosis); assay type: cell-based
Method: (§1) Peripheral venous blood was isolated from consenting healthy adult volunteers in heparin tubes as previously described. Briefly, blood samples were on Histopaque 1119 (Sigma-Aldrich) and then centrifuged for 20 min at 800 × g. The plasma was collected and centrifuged for a second time for 20 min at 800 × g. The neutrophil layer was collected and washed in Hyclone Hank’s Balanced Salt Solution (HBSS) -Ca, -Mg, -Phenol red (GE Healthcare) supplemented with 10 mM HEPES (Invitrogen) 0.1% FBS and further purified with a discontinuous Percoll (GE Healthcare) gradient consisting of layers with densities of 85, 80, 75, 70 and 65% and centrifuged for 20 min at 800 × g. Neutrophil-enriched layers were then collected and washed, and neutrophil purity was assessed using flow cytometry.
About 5 × 10^4 human neutrophils were seeded in a black 96-well plate (PerkinElmer) in HyClone HBSS +Ca, +Mg, - Phenol red (GE Healthcare) containing 10 mM HEPES (Invitrogen). Cells were pre-incubated with the corresponding peptide for 60 min prior to the start of the experiment. DNA of live cells was stained with 4 µg/mL Hoechst (membrane permeable; Thermo Scientific) and DNA from dead cells with 0.2 µM Sytox-green (membrane impermeable; Invitrogen). Cells were stimulated with 100 nM PMA, 5 µM Ca-Ionophore or 0.1 mg/mL cholesterol crystals at the start of the microscope acquisition. Plates stimulated with cholesterol crystals were centrifuged at 300×g for 5 min at RT immediately prior to microscope acquisition. The cells were imaged on an inverted Nikon wide-field microscope system at 37 °C and CO2 (5%). Four fields of view were acquired per well every 15 mins for 10–15 h using a 40x objective. NETs were differentiated from necrotic cells by the size of the sytox signal using FIJI[86]. […] [85]. Area measurements were distributed into bins of increasing area sizes and plotted as a percentage of the total number of Sytox-green positive (dead) cells.

[2] = tested on: human neutrophils; assay: Ca-ionophore stimulated neutrophils, citrullinated H3 immunostaining and confocal microscopy / immunoblot; assay type: cell-based; conditions: sheet Figure_3G, Ca-I + peptide
Method: as §1
About 5 × 10^4 sorted neutrophils were seeded in 24-well cell culture plates containing glass coverslips in HyClone HBSS +Ca, +Mg, - Phenol red (GE Healthcare) supplemented with 10 mM HEPES (Invitrogen). Neutrophils were stimulated with 5 µM Ca-Ionophore (Sigma) and fixed for 20 min at room temperature with 2% paraformaldehyde at RT. Cells were then washed and permeabilized with 0.5% Triton X-100 in PBS. Non-specific binding was blocked with 2% BSA (Sigma) and 2% donkey serum (Sigma) in PBS. Samples were stained with DAPI (Life Technologies), the rabbit anti-CitH3 (Abcam; ab5103 1:500) and donkey anti-rabbit alexa488 (Invitrogen; A21206). Fluorescence imaging was performed on a Leica TCS SP8 inverted confocal microscope using sequential scan in between frames mode with a 20x objective.
Neutrophil samples were boiled in a sodium dodecyl sulphate (SDS) buffer containing dithiothreitol (DTT) and run on a polyacrylamide gel electrophoresis (SDS-PAGE) using Criterion TGX precast gels (Any-KD; Bio-Rad Laboratories). Proteins were then transferred to a PVDF membrane (Bio-Rad Laboratories) via semi-dry transfer. The membrane was blocked with 5% BSA (Fisher Scientific) in Tris-buffered saline with 0.1% Tween-20 (TBS-T). Levels of citrullinated histone H3, total H3 and myeloperoxidase (MPO) were assessed by incubating membranes in either anti-histone H3 citrulline R2 + R8 + R17 (Abcam; ab5103 1:1000), anti-histone H3 (Millipore; 07-690 1:10000) or anti-MPO (DAKO; A0398 1:2500) overnight at 4 °C, respectively. For cell lysate-based assays and pull-down assays, membranes were incubated as above with anti-hPADI4 (Abcam; ab50332; 1:1000 in 5% BSA/TBS-T), anti-Bcr (Cell Signalling #3902S; 1:1000 in 3% milk/TBS-T) and anti-Impdh2 (Cell Signalling #57068S; 1:1000 in 3% milk/TBS-T). Membranes were washed in 0.1% TBS-T and subsequently incubated with goat anti-rabbit HRP or anti-goat (Fisher Scientific) for 1 h, followed by final washes in 0.1% TBS-T. Membranes were imaged with enhanced chemiluminescent substrate (ECL) (Thermo Fisher) on a Bio-Rad imager.

[3] = target: T1, hPADI4 (Homo sapiens, UniProt Q9UM07); assay: COLDER assay, inhibition of PADI4 at 10 mM CaCl2 (substrate BAEE); assay type: biochemical
T1 construct: PADI4 (residues 1–663); Avi-Tag (unbiotinylated); made in house; host or cells: E. coli BL21(DE3) without BirA
Method: PADI4 activity was assessed using the COLDER assay[43] that measures the formation of urea-containing compounds (e.g. citrulline). The reaction was carried out in a 96-well plate with a final volume of 50 µl. His-PADI4 (50 nM) was incubated with different concentrations of peptides (100 µM to 0.3 nM) in the presence of CaCl2 (from 10 mM to 0.001 mM as specified) for 10 min. The reaction was started by the addition of 10 mM N^α-Benzoyl-L-arginine ethyl ester hydrochloride (BAEE, Merck). After 30 min, the reaction was quenched with EDTA (50 mM final concentration). For colour development, 200 µl of COLDER solution, consisting of 1 volume of solution A (80 mM diacetyl monoxime/2,3-butanedione monoxime (Merck) and 2 mM thiosemicarbazide (Acros Organics)) and 3 volumes of solution B (3 M H3PO4, 6 M H2SO4 and 2 mM NH4Fe(SO4)2) were added to each well and the mixture was heated at 95 °C for 15 min. After cooling to RT, absorbance at 540 nm was measured, and citrulline concentration was determined using a standard curve of citrulline standards. All studies were performed within the linear range of PADI4 activity, and data analysis was performed using Prism GraphPad (Dotmatics). Data are presented as the average ± standard error of the mean from at least two independent replicates.

[4] = target: T2, Bio-hPADI4 wt (Homo sapiens, UniProt Q9UM07); assay: Surface plasmon resonance (SPR), single cycle kinetics, peptide binding to immobilised PADI4
T2 construct: PADI4 (residues 1–663); Avi-Tag (biotinylated by BirA); made in house; host or cells: E. coli BL21-DE3 co-expressing BirA
Method: Single cycle kinetics analysis by SPR was carried out using a Biacore T200 or S200 and a Biotin CAPture kit, series S (Cytiva). […] 50 mM HEPES (pH 7.5), 150 mM NaCl, 2 mM DTT, 0.05 % Tween-20, 0.1% DMSO and variable CaCl2 (as specified) was used as the running buffer and experiments performed at 25 °C.
Samples were run with 120 s contact time, and variable dissociation time (often 360 s). Data were analysed using the Biacore T200 analysis software; data was fitted to a 1:1 binding model accounting for baseline drift where necessary. Data are presented as the average ± standard deviation of at least two independent replicates.

[5] = DNA area (μm) 1500, replicate 1
[6] = DNA area (μm) 1500, replicate 2
[7] = DNA area (μm) 1500, replicate 4

T2 sequence (Q9UM07 whole entry, the tested form may be a part): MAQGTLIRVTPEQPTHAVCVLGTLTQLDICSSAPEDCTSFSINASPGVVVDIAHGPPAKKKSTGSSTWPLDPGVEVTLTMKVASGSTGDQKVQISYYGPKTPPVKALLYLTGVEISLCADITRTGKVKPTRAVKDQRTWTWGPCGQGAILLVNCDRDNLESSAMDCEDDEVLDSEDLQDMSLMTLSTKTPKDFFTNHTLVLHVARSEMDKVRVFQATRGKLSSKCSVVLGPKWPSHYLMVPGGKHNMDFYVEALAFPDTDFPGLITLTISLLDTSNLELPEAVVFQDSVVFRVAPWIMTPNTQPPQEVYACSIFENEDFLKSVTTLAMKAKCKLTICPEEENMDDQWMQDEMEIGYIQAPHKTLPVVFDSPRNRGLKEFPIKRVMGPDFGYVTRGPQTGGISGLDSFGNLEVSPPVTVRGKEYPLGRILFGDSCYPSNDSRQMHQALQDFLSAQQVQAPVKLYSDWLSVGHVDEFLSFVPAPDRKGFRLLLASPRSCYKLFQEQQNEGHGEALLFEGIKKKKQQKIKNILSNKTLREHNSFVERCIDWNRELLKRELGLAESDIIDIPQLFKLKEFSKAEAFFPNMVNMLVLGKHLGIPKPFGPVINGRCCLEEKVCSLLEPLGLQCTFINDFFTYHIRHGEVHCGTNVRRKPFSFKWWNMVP
T1 sequence (Q9UM07 whole entry, the tested form may be a part): as above

Structure (SMILES): N=C(N)NCCC[C@@H]1NC(=O)[C@H](Cc2ccc(O)cc2)NC(=O)[C@H](Cc2c[nH]cn2)NC(=O)[C@H](Cc2c[nH]cn2)NC(=O)[C@H](CC(=O)O)NC(=O)[C@H](CCCNC(=N)N)NC(=O)[C@@H](Cc2ccc(O)cc2)NC(=O)CSC[C@@H](C(=O)NCC(N)=O)NC(=O)[C@H](Cc2ccc(O)cc2)NC(=O)[C@H](CCCCN)NC(=O)[C@@H]2CCCN2C(=O)[C@H](Cc2c[nH]cn2)NC1=O [PAD4-3] ({CH2CO}-[dY]RDHHYRHPKYCG-NH2; thioether N-12)
share per DNA area bin ([1]; DNA area (μm) 150, replicate 1): 61.7647
share per DNA area bin ([1]; DNA area (μm) 150, replicate 2): 57.1429
share per DNA area bin ([1]; DNA area (μm) 150, replicate 3): 62.8571
share per DNA area bin ([1]; DNA area (μm) 150, replicate 4): 54.7619
share per DNA area bin ([1]; DNA area (μm) 250, replicate 1): 14.7059
share per DNA area bin ([1]; DNA area (μm) 250, replicate 2): 5.7143
share per DNA area bin ([1]; DNA area (μm) 250, replicate 3): 5.7143
share per DNA area bin ([1]; DNA area (μm) 250, replicate 4): 21.4286
share per DNA area bin ([1]; DNA area (μm) 750, replicate 1): 23.5294
share per DNA area bin ([1]; DNA area (μm) 750, replicate 2): 37.1429
share per DNA area bin ([1]; DNA area (μm) 750, replicate 3): 31.4286
share per DNA area bin ([1]; DNA area (μm) 750, replicate 4): 23.8095
share per DNA area bin [1, 5]: 0
share per DNA area bin [1, 6]: 0
share per DNA area bin ([1]; DNA area (μm) 1500, replicate 3): 0
share per DNA area bin [1, 7]: 0

Structure (SMILES): N=C(N)NCCC[C@@H]1NC(=O)[C@H](CC(=O)O)NC(=O)[C@@H](Cc2ccc(O)cc2)NC(=O)CSC[C@@H](C(=O)NCC(N)=O)NC(=O)[C@H](Cc2ccc(O)cc2)NC(=O)[C@H](CCCCN)NC(=O)[C@@H]2CCCN2C(=O)[C@H](Cc2c[nH]cn2)NC(=O)[C@H](CCCNC(=N)N)NC(=O)[C@H](Cc2ccc(O)cc2)NC(=O)[C@H](Cc2c[nH]cn2)NC(=O)[C@H](Cc2c[nH]cn2)NC1=O [PAD4-3inv] ({CH2CO}-[dY]DRHHYRHPKYCG-NH2; thioether N-12)
share per DNA area bin ([1]; DNA area (μm) 150, replicate 1): 64
share per DNA area bin ([1]; DNA area (μm) 150, replicate 2): 52.1739
share per DNA area bin ([1]; DNA area (μm) 150, replicate 3): 52.1739
share per DNA area bin ([1]; DNA area (μm) 150, replicate 4): 45.1613
share per DNA area bin ([1]; DNA area (μm) 250, replicate 1): 20
share per DNA area bin ([1]; DNA area (μm) 250, replicate 2): 0
share per DNA area bin ([1]; DNA area (μm) 250, replicate 3): 17.3913
share per DNA area bin ([1]; DNA area (μm) 250, replicate 4): 22.5806
share per DNA area bin ([1]; DNA area (μm) 750, replicate 1): 16
share per DNA area bin ([1]; DNA area (μm) 750, replicate 2): 47.8261
share per DNA area bin ([1]; DNA area (μm) 750, replicate 3): 30.4348
share per DNA area bin ([1]; DNA area (μm) 750, replicate 4): 29.0323
share per DNA area bin [1, 5]: 0
share per DNA area bin [1, 6]: 0
share per DNA area bin [1, 7]: 3.2258

Structure (SMILES): N=C(N)NCCC[C@@H]1NC(=O)[C@H](CC(=O)O)NC(=O)[C@@H](Cc2ccc(O)cc2)NC(=O)CSC[C@@H](C(=O)NCC(N)=O)NC(=O)[C@H](Cc2ccc(O)cc2)NC(=O)[C@H](CCCCN)NC(=O)[C@@H]2CCCN2C(=O)[C@H](Cc2c[nH]cn2)NC(=O)[C@H](CCCNC(=N)N)NC(=O)[C@H](Cc2ccc(O)cc2)NC(=O)[C@H](Cc2c[nH]cn2)NC(=O)[C@H](Cc2c[nH]cn2)NC1=O [PADI4-3i] ({CH2CO}-[dY]DRHHYRHPKYCG-NH2; thioether N-12)
Figure 3G quantification in Ca-I stimulated neutrophils (citrullinated H3 immunostaining) ([2]; replicate 1 (first data row)): 33.3333
Figure 3G quantification in Ca-I stimulated neutrophils (citrullinated H3 immunostaining) ([2]; replicate 2 (second data row)): 50
Figure 3G quantification in Ca-I stimulated neutrophils (citrullinated H3 immunostaining) ([2]; replicate 3 (third data row)): 41.6667
Figure 3G quantification in Ca-I stimulated neutrophils (citrullinated H3 immunostaining) ([2]; replicate 4 (fourth data row)): 50

Structure (SMILES): N=C(N)NCCC[C@@H]1NC(=O)[C@@H](Cc2ccc(O)cc2)NC(=O)CSC[C@@H](C(=O)NCC(N)=O)NC(=O)[C@H](Cc2ccc(O)cc2)NC(=O)[C@H](CCCCN)NC(=O)[C@@H]2CCCN2C(=O)[C@H](Cc2c[nH]cn2)NC(=O)[C@H](Cc2c[nH]c3ccccc23)NC(=O)[C@H](Cc2ccc(O)cc2)NC(=O)[C@H](Cc2c[nH]cn2)NC(=O)[C@H](Cc2c[nH]cn2)NC(=O)[C@H](CC(=O)O)NC1=O [PADI4_3.20] ({CH2CO}-[dY]RDHHYWHPKYCG-NH2; thioether N-12)
IC50 ([3]; COLDER inhibition assay, mean of the 3 experiments printed beside it (stdev in a separate column), read-out: IC50): 79.1 nM

IC50 ([3]; average of 3 replicates (Stdev in separate column), COLDER assay, 10 mM CaCl2, substrate BAEE, source data of Figure 2F, read-out: IC50s Average): 83.2 nM
Structure (SMILES): N=C(N)NCCC[C@@H]1NC(=O)[C@@H](Cc2ccc(O)cc2)NC(=O)CSC[C@@H](C(=O)NCC(N)=O)NC(=O)[C@H](Cc2ccc(O)cc2)NC(=O)[C@H](CCCCN)NC(=O)[C@@H]2CCCN2C(=O)[C@H](Cc2c[nH]cn2)NC(=O)[C@H](CCCNC(N)=O)NC(=O)[C@H](Cc2ccc(O)cc2)NC(=O)[C@H](Cc2c[nH]cn2)NC(=O)[C@H](Cc2c[nH]cn2)NC(=O)[C@H](CC(=O)O)NC1=O [PADI4_3.R7Cit] ({CH2CO}-[dY]RDHHY[Cit]HPKYCG-NH2; thioether N-12)

Kd ([4]; 0 mM CaCl2, 25 °C, read-out: KD 0 mM CaCl2, bound printed in µM): > 2 µM
Kd ([4]; 10 mM CaCl2, PADI4 active site blocked with Cl-amidine, 25 °C, read-out: KD 10 mM CaCl2 + Cl-amidine, bound given in µM): > 2 µM
Kd ([4]; 10 mM CaCl2 in running buffer, 25 °C, read-out: KD 10 mM CaCl2, bound printed in µM): > 2 µM
Structure (SMILES): CC[C@H](C)[C@@H]1NC(=O)[C@H](CC(C)C)NC(=O)[C@H](Cc2c[nH]c3ccccc23)NC(=O)[C@@H]2CCCN2C(=O)[C@H]([C@@H](C)O)NC(=O)[C@H](C)NC(=O)[C@@H](Cc2ccc(O)cc2)NC(=O)CSC[C@@H](C(=O)NCC(N)=O)NC(=O)[C@H](CC(C)C)NC(=O)[C@H](C(C)C)NC(=O)[C@H](C(C)C)NC1=O [PADI4_5] ({CH2CO}-[dY]ATPWLIVVLCG-NH2; thioether N-11)

Kd ([4]; Fig. 5D, mean ± SEM of three independent repeats, read-out: KD (µM) of PADI4_11 analogues): 0.5 ± 0.3 µM
Structure (SMILES): CC(C)C[C@H](NC(=O)[C@H](CCC(N)=O)NC(=O)[C@H](CC(C)C)NC(=O)[C@@H](NC(=O)[C@H](C)NC(=O)[C@H](CCCNC(=N)N)NC(=O)[C@H](Cc1ccc(O)cc1)NC(=O)[C@H](CCCNC(=N)N)NC(=O)[C@@H]1CSCC(=O)N[C@@H](Cc2ccc(O)cc2)C(=O)N[C@@H](CCC(=O)O)C(=O)N[C@@H](CO)C(=O)N1)C(C)C)C(N)=O [Q8A] ({CH2CO}-YESCRYRAVLQL-NH2; thioether N-4)
